Reference: ChEMBL document CHEMBL1152201, “Synthesis of 3,6-bicyclolides: a novel class of macrolide antibiotics” (2008)
≈ marks a conversion by molar mass, not a printed value.

Columns and labels:
Format in all cases: functional
Haemophilus influenzae [1] = assay: Antibacterial activity against ampicillin-susceptible Haemophilus influenzae by broth-microdilution method
Streptococcus pneumoniae [2] = assay: Antibacterial activity against erythromycin-susceptible Streptococcus pneumoniae 49619 by broth-microdilution method
Haemophilus influenzae [3] = assay: Antibacterial activity against ampicillin-resistant Haemophilus influenzae 33929 by broth-microdilution method
Streptococcus pyogenes [4] = assay: Antibacterial activity against erythromycin-resistant Streptococcus pyogenes 2912 expressing erm gene by broth-microdilution method
Staphylococcus aureus [5] = assay: Antibacterial activity against methicillin-resistant Staphylococcus aureus 33591 by broth-microdilution method
Streptococcus pyogenes [6] = assay: Antibacterial activity against erythromycin-resistant Streptococcus pyogenes 1323 expressing mef gene by broth-microdilution method
Moraxella catarrhalis = assay: Antibacterial activity against Moraxella catarrhalis by broth-microdilution method
Streptococcus pneumoniae [7] = assay: Antibacterial activity against erythromycin-resistant Streptococcus pneumoniae 700906 expressing […] gene by broth-microdilution method
Staphylococcus aureus [8] = assay: Antibacterial activity against erythromycin-susceptible Staphylococcus aureus 29213 by broth-microdilution method; details: ATCC29213
Streptococcus pneumoniae [9] = assay: Antibacterial activity against erythromycin-resistant Streptococcus pneumoniae 7701 expressing mef gene by broth-microdilution method
Staphylococcus aureus [10] = assay: Antibacterial activity against MLSB-resistant Staphylococcus aureus 27660 by broth-microdilution method
Streptococcus pyogenes [11] = assay: Antibacterial activity against erythromycin-susceptible Streptococcus pyogenes 19615 by broth-microdilution method
Staphylococcus aureus [12] = assay: Antibacterial activity against macrolide-susceptible Staphylococcus aureus Smith infected in mouse
Staphylococcus aureus [13] = assay: Antibacterial activity against macrolide-resistant Staphylococcus aureus 7701 infected in mouse
Staphylococcus aureus [14] = assay: Antibacterial activity against macrolide-susceptible Staphylococcus aureus Smith by broth-microdilution method

Structure (SMILES) | MIC (Haemophilus influenzae [1]) | MIC (Streptococcus pneumoniae [2]) | MIC (Haemophilus influenzae [3]) | MIC (Streptococcus pyogenes [4]) | MIC (Staphylococcus aureus [5]) | MIC (Streptococcus pyogenes [6]) | MIC (Moraxella catarrhalis) | MIC (Streptococcus pneumoniae [7]) | MIC (Staphylococcus aureus [8]) | MIC (Streptococcus pneumoniae [9]) | MIC (Staphylococcus aureus [10]) | MIC (Streptococcus pyogenes [11]) | ED50 (Staphylococcus aureus [12]) | ED50 (Staphylococcus aureus [13]) | MIC (Staphylococcus aureus [14])
C=C1CO[C@H]2[C@H](C)[C@@H](O[C@@H]3O[C@H](C)C[C@H](N(C)C)[C@H]3O)[C@](C)(C[C@@H](C)C(=O)[C@H](C)[C@@H](O)[C@](C)(O)[C@@H](CC)OC(=O)[C@@H]2C)OC1 | 64 mg/L (≈ 102 µM) | 0.125 mg/L (≈ 0.199 µM) | 64 mg/L (≈ 102 µM) | > 64 mg/L | > 64 mg/L | 0.5 mg/L (≈ 0.796 µM) | 0.5 mg/L (≈ 0.796 µM) | > 64 mg/L | 1 mg/L (≈ 1.59 µM) | 0.25 mg/L (≈ 0.398 µM) | 1 mg/L (≈ 1.59 µM) | 0.25 mg/L (≈ 0.398 µM) |  |  | 
C=C1CO[C@H]2[C@H](C)[C@@H](O[C@@H]3O[C@H](C)C[C@H](N(C)C)[C@H]3O)[C@](C)(C[C@@H](C)/C(=N\O)[C@H](C)[C@@H](O)[C@](C)(O)[C@@H](CC)OC(=O)[C@@H]2C)OC1 | 32 mg/L (≈ 49.8 µM) | ≤ 0.06 mg/L | 32 mg/L (≈ 49.8 µM) | > 64 mg/L | > 64 mg/L | 0.25 mg/L (≈ 0.389 µM) | 0.25 mg/L (≈ 0.389 µM) | > 64 mg/L | 1 mg/L (≈ 1.56 µM) | 0.25 mg/L (≈ 0.389 µM) | 1 mg/L (≈ 1.56 µM) | 0.125 mg/L (≈ 0.194 µM) |  |  | 
C=C1CO[C@H]2[C@H](C)[C@@H](O[C@@H]3O[C@H](C)C[C@H](N(C)C)[C@H]3O)[C@](C)(C[C@@H](C)C(=N)[C@H](C)[C@@H](O)[C@](C)(O)[C@@H](CC)OC(=O)[C@@H]2C)OC1 | 16 mg/L (≈ 25.5 µM) | 0.125 mg/L (≈ 0.199 µM) | 64 mg/L (≈ 102 µM) | 64 mg/L (≈ 102 µM) | > 64 mg/L | 0.5 mg/L (≈ 0.798 µM) | 0.5 mg/L (≈ 0.798 µM) | > 64 mg/L | 2 mg/L (≈ 3.19 µM) | 0.25 mg/L (≈ 0.399 µM) | 2 mg/L (≈ 3.19 µM) | 0.125 mg/L (≈ 0.199 µM) |  |  | 
C=C1CO[C@H]2[C@H](C)[C@@H](O[C@@H]3O[C@H](C)C[C@H](N(C)C)[C@H]3O)[C@](C)(C[C@@H](C)C(=O)[C@H](C)[C@@H]3NC(=O)O[C@]3(C)[C@@H](CC)OC(=O)[C@@H]2C)OC1 | 2 mg/L (≈ 3.06 µM) | ≤ 0.06 mg/L | 4 mg/L (≈ 6.13 µM) | > 64 mg/L | > 64 mg/L | 0.125 mg/L (≈ 0.191 µM) | ≤ 0.06 mg/L | > 64 mg/L | 0.125 mg/L (≈ 0.191 µM) |  | 0.125 mg/L (≈ 0.191 µM) | ≤ 0.06 mg/L | 10 mg/kg | 7 mg/kg | 0.125 mg/L (≈ 0.191 µM)
CC[C@H]1OC(=O)[C@H](C)C(=O)[C@H](C)[C@@H](O[C@@H]2O[C@H](C)C[C@H](N(C)C)[C@H]2O)[C@](C)(OC)C[C@@H](C)C(=O)[C@H](C)[C@H]2N(CCCCn3cnc(-c4cccnc4)c3)C(=O)O[C@]12C [TELITHROMYCIN] |  |  |  |  |  |  |  |  |  |  |  |  | 17.2 mg/kg | 17.2 mg/kg | 0.125 mg/L (≈ 0.154 µM)
C=C1CO[C@H]2[C@H](C)[C@@H](O[C@@H]3O[C@H](C)C[C@H](N(C)C)[C@H]3O)[C@](C)(C[C@@H](C)[C@H](N)[C@H](C)[C@@H](O)[C@](C)(O)[C@@H](CC)OC(=O)[C@@H]2C)OC1 | 32 mg/L (≈ 50.9 µM) | ≤ 0.06 mg/L | 32 mg/L (≈ 50.9 µM) | 64 mg/L (≈ 102 µM) | > 64 mg/L | 0.25 mg/L (≈ 0.398 µM) | 0.5 mg/L (≈ 0.795 µM) | > 64 mg/L | 4 mg/L (≈ 6.36 µM) | 0.125 mg/L (≈ 0.199 µM) | 4 mg/L (≈ 6.36 µM) | ≤ 0.06 mg/L |  |  | 
CC[C@H]1OC(=O)[C@H](C)[C@@H](O[C@H]2C[C@@](C)(OC)[C@@H](O)[C@H](C)O2)[C@H](C)[C@@H](O[C@@H]2O[C@H](C)C[C@H](N(C)C)[C@H]2O)[C@](C)(O)C[C@@H](C)C(=O)[C@H](C)[C@@H](O)[C@]1(C)O [ERYTHROMYCIN] | 4 mg/L (≈ 5.45 µM) | ≤ 0.06 mg/L | 4 mg/L (≈ 5.45 µM) | > 64 mg/L | > 64 mg/L | 16 mg/L (≈ 21.8 µM) | 0.13 mg/L (≈ 0.177 µM) | > 64 mg/L | 0.5 mg/L (≈ 0.681 µM) | 4 mg/L (≈ 5.45 µM) | > 64 mg/L | 0.015 mg/L (≈ 0.0204 µM) |  |  | 
